Source: patent US4486429A, “Amino derivatives of 4-phenyl 4-oxobuten-2-oic acid, pharmaceutical compositions containing them, and methods for preparing and therapeutically using them” (Roussel Uclaf, priority 1981, dated 1984)

Tests used:
stomach ulcers = assay: Determination of the anti-ulcer activity (stress ulcer, rats); format: in vivo; conditions: female rats, stress and cold (8° C., two hours), dose 10 mg/kg by esophageal tube two hours before
Procedure: (2) Determination of the anti-ulcer activity
The technique consists in inducing stomach ulcers by stress in rats (stress and cold). The technique used is described by E. C. SENAY and R. J. LEVINE, Proc. Soc. Exp. Biol. 124, 1221 (1967).
Female rats weighing about 150 g (5 animals per lot) which have fasted for 48 hours with water ad libitum and glucose solution for 8 hours were used. By an esophageal tube, the animals were administered the test compound, or a solution of 0.5% carboxymethyl cellulose solution for the control animals. Two hours later, the animals were bundled in a jacket of netting. Their paws were bound and the entire unit was placed in a refrigerator at 8° C. for two hours. The rats were released and killed with ether.
Their stomachs were removed, opened along the greater curvature and examined by binocular magnifier. The seriousness of ulceration was clasified from 0 to 3 for each stomach.
For each lot of rats the average intensity of the ulcerations was calculated. The degree of ulceration for control and test animals was determined and the variation expressed in percentage.

[1] = Determination of the acute toxicity (LD50, oral, mice); conditions: mouse, in vivo, oral administration
Procedure: (3) Determination of the acute toxicity
The LD50 was evaluated after oral administration of the product to mice.

gastric secretions = assay: Determination of the anti-gastric secretion activity (Shay technique, pylorus ligation, rats); format: in vivo; conditions: pylorus ligated, dose 10 mg/kg, intraduodenal, 3 hours, total acidity of gastric juice
Procedure: (1) Determination of the anti-gastric secretion activity
The technique used is described by H. SHAY et al. in Gastroenterology 5, 43, 1945.
Male rats were used having a weight of about 200 g each (10 animals per lot), and kept without food for 48 hours but enjoying ad libitum 8% glucose solution. After the rats were slightly anesthetized with ether the pylorus of each was ligated. At the end of the operation, the product to be tested was administered intraduodenally in different doses or, for the control animals 0.5% carboxymethyl cellulose solution was administered, whereupon the abdominal incision is sutured.
Three hours later, the animals were sacrificed and their stomachs removed after ligating the esophagus. The gastric juice was removed and centrifuged. The volume of gastric juice obtained was then measured and the total acidity of the gastric juice was determined by titrating a […] of gastric juice to a pH of 7 by means of 1/10 N aqueous sodium hydroxide solution.
The percentages of variation in total acidity of the gastric secretions between control and test animals were calculated.

| SMILES | Anti-ulcer activity (% variation referred to the controls): Ulceration (stomach ulcers) [%] | LD50 [1] [mg/kg] | Anti-secretion activity (% variation referred to the controls): Acid Concentration (gastric secretions) [%] |
| --- | --- | --- | --- |
| CN(C)c1ccc(C(=O)/C=C/C(=O)O)cc1 [Example 4, (E) 4-(4-N,N-dimethylaminophenyl) 4-oxobuten-2-oic acid] | -61 | 750 | -58 |
| CCOC(=O)Nc1ccc(C(=O)/C=C/C(=O)O)cc1 [Example 1, (E) 4-(4-carbethoxyaminophenyl)-4-oxobuten-2-oic acid] | -41 | > 1000 | -55 |
